From patent publication US20240067634A1, “INHIBITORS OF NEF DOWNMODULATION” (priority 2020, published 2024) come the findings set out here.

A value given as a limit tells only on which side of the number the result lay.

In the first experiment the target is V-ATPase-dependent lysosomal acidification. Put plainly: cells. The experiment is classed as cell-based, human. The following applies: 24 hr Lysotracker IC50; 1000 nM set as activity threshold (FIG. 11-14); read-out: Lyso IC50. The text has this: Determine effect on V-ATPase activity: Plecomacrolides are known inhibitors of V-ATPase that neutralize normally acidified lysosomes. […] Thus, analogs of the disclosure are further characterized by measuring their effects on lysosome acidification.
LysoTracker® is a fluorophore linked to a weak base that is partially protonated at neutral pH. This form of the probe is capable of freely permeating cell membranes of live cells. In acidic compartments, protonation creates a form that was impermeable causing the probe to accumulate inside the lysosome.
Broadly, the IC50 is the concentration that gives 50% inhibition. On to `CC=CC=CC1OC(O)(C(C)C(O)C(C)C2OC(=O)C(OC)=CC(C)=CC(C)C(O)C(C)CC(C)=CC=CC2OC)CC(OC2CC(O)C(O)C(C)O2)C1C` (stereo not drawn) [PC-766B, reference compound], for which the 50% inhibitory concentration (IC50) is 2.72 nM. Same read-out and setting: as for `CO/C1=C\C(C)=C\C(C)C(O)C(C)C/C(C)=C/C=C/C(OC)C(C(C)C(O)C(C)C2(O)CC(O[C@@H]3O[C@@H](C)[C@H](O)[C@@H](O)[C@H]3OC)C(C)C(C(C)C)O2)OC1=O` (stereo partly drawn) [Leucanicidin, reference compound], the figure is 2.04 nM; as for `C#CCCC(=O)O[C@H]1C[C@@H](O[C@@H]2C[C@](O)([C@@H](C)[C@H](O)[C@H](C)[C@H]3OC(=O)/C(OC)=C/C(C)=C/[C@@H](C)[C@@H](O)[C@@H](CC)[C@@H](O)[C@H](C)C/C(C)=C/C=C/[C@@H]3OC)O[C@H](/C=C/C)[C@H]2C)O[C@@H](C)[C@@H]1OC(N)=O` [23-Alkyne CMA, 3′-pent-4-ynoate Concanamycins A-C], 1.1 nM; as for `C/C=C/[C@H]1O[C@@](O)([C@@H](C)[C@H](O)[C@H](C)[C@H]2OC(=O)/C(OC)=C/C(C)=C/[C@@H](C)[C@@H](O)[C@@H](C)[C@@H](O)[C@H](C)C/C(C)=C/C=C/[C@@H]2OC)C[C@@H](O[C@H]2C[C@@H](O)[C@H](OC(N)=O)[C@@H](C)O2)[C@@H]1C` [CMB, Concanamycin B, reference compound], 29.6 nM. For `C#CCCC(=O)O[C@H]1C[C@@H](O[C@@H]2C[C@](O)([C@@H](C)[C@H](O)[C@H](C)[C@H]3OC(=O)/C(OC)=C/C(C)=C/[C@@H](C)[C@@H](O)[C@@H](CC)[C@@H](O)[C@H](C)C/C(C)=C/C=C/[C@@H]3OC)O[C@H](/C=C/C)[C@H]2C)O[C@@H](C)[C@@H]1OC(N)=O` [23-Alkyne CMC, 3′-pent-4-ynoate Concanamycins A-C], the IC50 was determined as 5.72 nM. Same read-out and setting: then 19-Deoxy-21-Methoxy Baf A1, with 49.6 nM. On the same count and under the same terms, then 19-Deoxy-21-allylester Baf A1, with 152 nM; and `C/C=C/[C@H]1O[C@@](O)([C@@H](C)[C@H](O)[C@H](C)[C@H]2OC(=O)/C(OC)=C/C(C)=C/[C@@H](C)[C@@H](O)[C@@H](CC)[C@@H](O)[C@H](C)C/C(C)=C/C=C/[C@@H]2OC)C[C@@H](O[C@H]2C[C@@H](O)[C@H](O)[C@@H](C)O2)[C@@H]1C` [CMC, Concanamycin C, reference compound], with 2.72 nM. The same measure, in the same setting: then 19-Deoxy-20-ene Baf A1, with 341 nM.

Still in this experiment, the particulars now being: Homo sapiens, PBMC, 24 h, 24 hr Lysotracker IC50; 1000 nM set as activity threshold (FIG. 11-14); read-out: Lyso IC50.
`CCCCC(=O)O[C@@H]1C[C@](O)([C@@H](C)[C@H](O)[C@H](C)[C@H]2OC(=O)/C(OC)=C/C(C)=C/[C@@H](C)[C@@H](O)[C@@H](C)C/C(C)=C/C=C/[C@@H]2OC)O[C@H](C(C)C)[C@H]1C` [21-Pentanoate Baf A1, 21-pentanone Bafilomycin]: the IC50 amounted to 62.3 nM. On the same count and under the same terms, as for `C/C=C/[C@H]1O[C@@H]([C@@H](C)[C@H](O)[C@H](C)[C@H]2OC(=O)/C(O)=C/C(C)=C/[C@@H](C)[C@@H](O)[C@@H](CC)[C@@H](O)[C@H](C)C/C(C)=C/C=C/[C@@H]2OC)C[C@@H](O)[C@@H]1C` [2-hydroxy-21-deoxy CMF, 21-deoxy-2-hydroxy-Concanamycin F], the figure is no less than 1000 nM; as for `C#CCCC(=O)O[C@H]1C[C@@H](O[C@@H]2C[C@](O)([C@@H](C)[C@H](O)[C@H](C)[C@H]3OC(=O)/C(OC)=C/C(C)=C/[C@@H](C)[C@@H](O)[C@@H](C)[C@@H](O)[C@H](C)C/C(C)=C/C=C/[C@@H]3OC)O[C@H](/C=C/C)[C@H]2C)O[C@@H](C)[C@@H]1OC(N)=O` [23-Alkyne CMB, 3′-pent-4-ynoate Concanamycins A-C], 5.75 nM; as for `CO/C1=C\C(C)=C\[C@@H](C)[C@@H](O)[C@@H](C)C/C(C)=C/C=C/[C@H](OC)[C@@H]([C@@H](C)[C@@H](O)[C@H](C)[C@@]2(OC)C[C@@H](O)[C@H](C)[C@@H](C(C)C)O2)OC1=O` [BafA2, Bafilomycin A2], 25.3 nM. On the same count and under the same terms, then `C/C=C/[C@H]1O[C@@H]([C@@H](C)[C@H](O)[C@H](C)[C@H]2OC(=O)/C(OC)=C/C(C)=C/[C@@H](C)[C@@H](O)[C@@H](CC)[C@@H](O)[C@H](C)C/C(C)=C/C=C/[C@@H]2OC)C[C@@H](O[C@@H]2C[C@H](O)[C@@H](O)[C@H](C)O2)[C@@H]1C` [21-Deoxy CMC, 21-deoxy CMC], with 7.04 nM; and `C#CCCC1(CCC(=O)O[C@@H]2C[C@](O)([C@@H](C)[C@H](O)[C@H](C)[C@H]3OC(=O)/C(OC)=C/C(C)=C/[C@@H](C)[C@@H](O)[C@@H](C)C/C(C)=C/C=C/[C@@H]3OC)O[C@H](C(C)C)[C@H]2C)N=N1` [21 Dual Linear Bafilomycin Probe, 21-(3-(3-(but-3-yn-1-yl)-3H-diazirin-3-yl)propanoate) Bafilomycin], with 28.3 nM. Same read-out and setting: then `C#CCCC1(CCC(=O)O[C@H]2C[C@@H](O[C@@H]3C[C@](O)([C@@H](C)[C@H](O)[C@H](C)[C@H]4OC(=O)/C(OC)=C/C(C)=C/[C@@H](C)[C@@H](O)[C@@H](C)[C@@H](O)[C@H](C)C/C(C)=C/C=C/[C@@H]4OC)O[C@H](/C=C/C)[C@H]3C)O[C@@H](C)[C@@H]2OC(N)=O)N=N1` [23-Dual Linear Probe CMB, 3′-(3-(3-(but-3-yn-1-yl)-3H-diazirin-3-yl)propanoate) Concanamycin B], with 23.2 nM. As for `C#CCCC1(CCC(=O)O[C@H]2C[C@@H](O[C@@H]3C[C@](O)([C@@H](C)[C@H](O)[C@H](C)[C@H]4OC(=O)/C(OC)=C/C(C)=C/[C@@H](C)[C@@H](O)[C@@H](CC)[C@@H](O)[C@H](C)C/C(C)=C/C=C/[C@@H]4OC)O[C@H](/C=C/C)[C@H]3C)O[C@@H](C)[C@@H]2OC(N)=O)N=N1` [23-Dual Linear Probe CMC, 3′-(3-(3-(but-3-yn-1-yl)-3H-diazirin-3-yl)propanoate) Concanamycin C], the IC50 is 4.7 nM.

`C#CCCC(=O)O[C@@H]1[C@H](C)/C=C(C)/C=C(\OC)C(=O)O[C@H]([C@@H](C)[C@@H](O)[C@H](C)[C@@]2(O)C[C@@H](OC(=O)c3ccc(C4(C(F)(F)F)N=N4)cc3)[C@H](C)[C@@H](C(C)C)O2)[C@@H](OC)/C=C/C=C(\C)C[C@@H]1C` [7 Alkyne 21-Y Bafilomycin Probe, 21-(3-(trifluoromethyl)-3H-diazirin-3-yl)benzoate-7-pent-4-ynoate-Bafilomycin]: the IC50 was no less than 1000 nM.

For `C#CCCC(=O)O[C@@H]1C[C@H]([C@@H](C)[C@H](O)[C@H](C)[C@H]2OC(=O)/C(OC)=C/C(C)=C/[C@@H](C)[C@@H](O)[C@@H](C)C/C(C)=C/C=C/[C@@H]2OC)OC(C(C)C)[C@H]1C` (stereo partly drawn) [19-Deoxy-21(4-Pentynoate) Baf A1, 19-deoxy-21-pent-4-ynoate Bafilomycin], the IC50 amounted to 76.4 nM.

Staying with this experiment, now noted: Homo sapiens, PBMC, 24 h; read-out: Lyso IC50.
For `CO/C1=C\C(C)=C\[C@@H](C)C(=O)[C@@H](C)C/C(C)=C/C=C/[C@H](OC)[C@@H]([C@@H](C)[C@@H](O)[C@H](C)[C@@]2(O)CC(=O)[C@H](C)[C@@H](C(C)C)O2)OC1=O` [7,21-Dione Baf A1, 7,21-dione Bafilomycin], the IC50 is no less than 1000 nM. On the same count and under the same terms, as for `C/C=C/[C@H]1O[C@@](O)([C@@H](C)[C@H](O)[C@H](C)[C@H]2OC(=O)/C(OC)=C/C(C)=C/[C@@H](C)[C@@H](O)[C@@H](CC)[C@@H](O)[C@H](C)C/C(C)=C/C=C/[C@@H]2OC)C[C@@H](O)[C@@H]1C` [CMF, Concanamycin F], the figure is 6.27 nM.
